# How the values were obtained:
# [1] = tested on: MDA-MB-231; assay: cells; details: Homo sapiens, MDA-MB-231, 72 h
# Description: Antiproliferative activity against human MDA-MB-231 cells assessed as inhibition of cell proliferation incubated for 72 hrs by MTT assay
# [2] = tested on: A549; assay: cells; details: Homo sapiens, A549, 72 h
# Description: Antiproliferative activity against human A549 cells assessed as inhibition of cell proliferation incubated for 72 hrs by MTT assay
# [3] = molecular target: T1, Focal adhesion kinase 1 (Homo sapiens, UniProt Q05397); assay: Inhibition of FAK (unknown origin) incubated for 50 mins in presence of substrate/ATP by HTRF assay
# [4] = molecular target: T1, Focal adhesion kinase 1; assay: Inhibition of GST-fused FAK (411 to 686 residues)(unknown origin) expressed in baculovirus expression system using poly(Glu:Tyr) as substrate incubated for 5 mins in presence of ATP by K-LISA screening assay
# T1 sequence (Q05397 whole entry, the tested form may be a part): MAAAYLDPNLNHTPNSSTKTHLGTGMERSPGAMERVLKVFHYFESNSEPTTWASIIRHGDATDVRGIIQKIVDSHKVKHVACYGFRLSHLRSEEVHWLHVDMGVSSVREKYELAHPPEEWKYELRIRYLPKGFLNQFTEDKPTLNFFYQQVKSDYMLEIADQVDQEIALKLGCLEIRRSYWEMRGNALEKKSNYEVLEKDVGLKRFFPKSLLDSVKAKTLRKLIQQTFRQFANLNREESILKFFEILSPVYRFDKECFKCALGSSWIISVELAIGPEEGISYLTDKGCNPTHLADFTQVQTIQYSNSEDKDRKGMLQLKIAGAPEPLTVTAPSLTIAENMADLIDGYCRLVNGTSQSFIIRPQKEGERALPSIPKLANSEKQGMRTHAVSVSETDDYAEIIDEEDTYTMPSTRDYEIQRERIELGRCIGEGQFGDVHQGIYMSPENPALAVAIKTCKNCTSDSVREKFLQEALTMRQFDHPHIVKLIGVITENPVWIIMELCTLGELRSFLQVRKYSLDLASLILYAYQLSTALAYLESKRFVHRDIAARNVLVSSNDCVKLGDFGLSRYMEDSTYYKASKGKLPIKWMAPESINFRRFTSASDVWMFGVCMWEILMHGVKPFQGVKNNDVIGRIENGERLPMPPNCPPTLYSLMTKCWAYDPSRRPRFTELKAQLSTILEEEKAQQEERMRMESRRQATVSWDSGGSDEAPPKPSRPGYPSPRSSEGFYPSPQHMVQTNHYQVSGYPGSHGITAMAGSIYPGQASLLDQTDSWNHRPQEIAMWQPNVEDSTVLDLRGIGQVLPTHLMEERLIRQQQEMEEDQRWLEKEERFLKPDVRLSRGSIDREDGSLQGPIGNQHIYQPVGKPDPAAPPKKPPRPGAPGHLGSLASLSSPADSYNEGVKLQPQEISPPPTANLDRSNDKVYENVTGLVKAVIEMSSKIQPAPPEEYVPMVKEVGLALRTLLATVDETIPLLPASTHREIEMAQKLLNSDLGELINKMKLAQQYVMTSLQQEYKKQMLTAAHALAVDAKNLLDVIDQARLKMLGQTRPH
compound,measurement,setting,value
CNC(=O)c1ccccc1Nc1nc(Nc2ccc(N3CCOCC3)cc2OC)ncc1Cl,IC50,[1],1020 nM
same,IC50,[2],4240 nM
COc1cc(C(=O)NC2CCC(O)CC2)ccc1Nc1ncc(Cl)c(Nc2ccccc2P(C)(C)=O)n1 (centres undefined),IC50,[1],2490 nM
same,IC50,[2],1400 nM
same,IC50,[3],15.7 nM
Cc1cc(C(=O)NC2CCNCC2)ccc1Nc1ncc(Cl)c(Nc2ccccc2P(C)(C)=O)n1,IC50,[3],28.8 nM
CNC(=O)c1ccccc1Nc1nc(Nc2ccc(N3CCOCC3)cc2OC)ncc1C(F)(F)F,IC50,[4],1.5 nM
CNC1CCN(C(=O)c2ccc(Nc3ncc(Cl)c(Nc4ccccc4P(C)(C)=O)n3)cc2)CC1,IC50,[3],413 nM
CP(C)(=O)c1ccccc1Nc1nc(Nc2ccc(C(=O)NC3CCC(O)CC3)cc2)ncc1Cl (centres undefined),IC50,[1],860 nM
same,IC50,[2],110 nM
same,IC50,[3],9.6 nM
CN(C(=O)c1ccc(Nc2ncc(Cl)c(Nc3ccccc3P(C)(C)=O)n2)cc1)C1CCCNC1 (centres undefined),IC50,[3],163 nM
CP(C)(=O)c1ccccc1Nc1nc(Nc2ccc(C(=O)NC3CCNCC3)cc2)ncc1Cl,IC50,[1],1620 nM
same,IC50,[2],2300 nM
same,IC50,[3],8.7 nM
CN(C(=O)c1ccc(Nc2ncc(Cl)c(Nc3ccccc3P(C)(C)=O)n2)cc1)C1CCNCC1,IC50,[3],119 nM
CP(C)(=O)c1ccccc1Nc1nc(Nc2ccc(C(=O)N3CCC[C@@H](N)C3)cc2)ncc1Cl,IC50,[3],240 nM
CP(C)(=O)c1ccccc1Nc1nc(Nc2ccc(C(=O)N[C@@H]3CCNC3)cc2)ncc1Cl,IC50,[1],2120 nM
same,IC50,[2],2230 nM
same,IC50,[3],16.7 nM
CP(C)(=O)c1ccccc1Nc1nc(Nc2ccc(C(=O)NC3CCC(O)CC3)cc2F)ncc1Cl (centres undefined),IC50,[3],17.5 nM
Cc1cc(C(=O)NC2CCC(O)CC2)ccc1Nc1ncc(Cl)c(Nc2ccccc2P(C)(C)=O)n1 (centres undefined),IC50,[3],31.7 nM
Cc1cc(Nc2ncc(Cl)c(Nc3ccccc3P(C)(C)=O)n2)ccc1C(=O)NC1CCC(O)CC1 (centres undefined),IC50,[1],7530 nM
same,IC50,[2],520 nM
same,IC50,[3],10.3 nM
CP(C)(=O)c1ccccc1Nc1nc(Nc2ccc(C(=O)N3CCC(N4CCOCC4)CC3)cc2)ncc1Cl,IC50,[3],149 nM
CP(C)(=O)c1ccccc1Nc1nc(Nc2ccc(C(=O)N3CCOCC3)cc2)ncc1Cl,IC50,[3],356 nM
CP(C)(=O)c1ccccc1Nc1nc(Nc2ccc(C(=O)N3CCNCC3)cc2)ncc1Cl,IC50,[3],328 nM
CP(C)(=O)c1ccccc1Nc1nc(Nc2ccc(C(=O)NCC3CCNCC3)cc2)ncc1Cl,IC50,[3],19.7 nM
COc1cc(C(=O)NC2CCNCC2)ccc1Nc1ncc(Cl)c(Nc2ccccc2P(C)(C)=O)n1,IC50,[1],1340 nM
same,IC50,[2],1410 nM
same,IC50,[3],6.7 nM
CP(C)(=O)c1ccccc1Nc1nc(Nc2ccc(C(=O)N3CCC[C@H](N)C3)cc2)ncc1Cl,IC50,[3],361 nM
Cc1cc(Nc2ncc(Cl)c(Nc3ccccc3P(C)(C)=O)n2)ccc1C(=O)NC1CCNCC1,IC50,[3],31.9 nM
CP(C)(=O)c1ccccc1Nc1nc(Nc2ccc(C(=O)NC3CCNCC3)cc2F)ncc1Cl,IC50,[3],27.5 nM
CP(C)(=O)c1ccccc1Nc1nc(Nc2ccc(C(=O)NC3CCNCC3)c(F)c2)ncc1Cl,IC50,[1],8690 nM
same,IC50,[2],2650 nM
same,IC50,[3],15.8 nM
CP(C)(=O)c1ccccc1Nc1nc(Nc2ccc(C(=O)NC3CCC(O)CC3)c(F)c2)ncc1Cl (centres undefined),IC50,[1],2480 nM
same,IC50,[2],390 nM
same,IC50,[3],15.2 nM
CP(C)(=O)c1ccccc1Nc1nc(Nc2ccc(C(=O)N[C@H]3CCNC3)cc2)ncc1Cl,IC50,[1],2350 nM
same,IC50,[2],2210 nM
same,IC50,[3],14.3 nM
